The values below are quoted from earlier work in patent publication US20250057962A1, “PROCESSABLE COMPOSITIONS AND USE FOR THE SAME” (Ripple Therapeutics Corporation, priority 2021, published 2025).

The conditions of this data set: given once a day.

Take `CC(C)OC(=O)CCC/C=C\C[C@@H]1[C@@H](CC[C@@H](O)CCc2ccccc2)[C@H](O)C[C@@H]1O` [latanoprost]: the “mean IOP lowering” value is reported as “about 35%”.
